Experiments:
[1] = tested on: ZEB1 expression in 4T1 cells; experiment: qPCR ZEB1 mRNA, TGFβ-induced EMT; format: cell-based, mouse; details: for ZEB1 mRNA expression: GC7 10 μM pre-treatment
Text: The pathway in which the inventors are interested in targeting eIF5A is in the context of TGFβ-induced EMT and TGFβ is a well-characterized inducer of EMT. […] Phase-contrast images are shown to the right of the western blot to indicate a shift in morphology after treatment with TGFβ. […] Since TGFβ can induce PEAK1 upregulation, while in contrast, hypusinated eIF5A promotes PEAK1 translation, the inventors sought to see if TGFβ alone can upregulate hypusinated eIF5A. Post-translational modifications can occur relatively fast. Therefore short-term treatments of TGFβ on 4T1, 67NR and MCF10CA1a cells were performed initially. Protein lysates were collected after 10, 30 and 120 minutes of treatment and immunoblotted for hypusine, total eIF5A and β-actin (FIG. 4B). […] Relative band intensity is graphed to the right of the western blot in which the ratio between hypusine to total eIF5A is compared first between treated samples to control samples then a ratio is calculated comparing each time point relative to 10 minutes as a starting time point of reference. […] The inventors were also interested in what genes were altered at the transcriptional level when dual treating with TGFβ and GC7 at the same time to block EMT. To test for this, 4T1 and MCF10CA1a cells were plated on either plastic or fibronectin extra-cellular matrix (ECM) protein and pre-treated them with GC7 at 10 μM for 48 hours to ensure the eIF5A hypusination pathway is blocked. The inventors then treated with TGFβ at 2.5 ng/mL and collected RNA after 12 or 48 hours. […] Phase contrast images were also taken before RNA collection to show changes in morphology where EMT was either induced or reversed (FIG. 4C). […] Also, with the correct treatment time and conditions, inhibition of hypusination can block TGFβ-induced EMT.
(§1) Next, the inventors investigated whether blockade of HDAC6 and DHPS activity could further suppress TGFβ-induced EMT either independently or simultaneously. To test this, 4T1 cells were treated with either TubA at 10 μM, GC7 at 10 μM or both for 48 hours. At this time point, protein lysates were collected as well as phase-contrast images (FIGS. 6B and 6C). At that same time point, the media was changed and the cells were re-treated with the same drugs at the same concentrations; however, this time with the addition of TGFβ at 2.5 ng/mL. The inventors collected protein lysates and phase-contrast images just one day post TGFβ treatment, calling this the 72-hour time point (FIGS. 6B and 6C). In addition, the inventors collected mRNA, protein lysates, phase-contrast and immunofluorescences images two days post TGFβ treatment, calling this the 96-hour time point (FIGS. 6A, 6B, 6C and 6D).
Cell lines were plated in a 6 well plate at 1e5 cells/mL and left to attach overnight. […]

[2] = tested on: eIF5A localization in MCF10CA1h cells; experiment: Immunofluorescence, subcellular localization of total eIF5A; format: cell-based, human; details: 1 and 10 μM GC7, 48 hours
Procedure: (§2) Thus, we interrogated the subcellular localization of eIF5A protein using immunofluorescent staining under control as well as 1 and 10 μM GC7 treatment conditions in triple negative breast cancer lines (FIGS. 12A and 12B).
(§3) Cells were plated at 1e4 cells/mL at 4 mL in a 6-well plate containing a sterile glass coverslip and allowed to attach overnight. Cells were then treated with appropriate inhibitors at indicated concentrations and time-points. Cells were first fixed using 4% paraformaldehyde for 20 minutes. Cells were then subjected to Triton-X to permeabilize the cells before treatment with specific antibodies in 2% BSA in PBS. After primary antibody incubation for 90 minutes, cells were washed with PBS three times before incubating with secondary antibodies in 2% BSA in PBS for 1 hour. Cells were again washed with PBS three times before set overnight staining with DAPI. Cells were then imaged using a Leica DMI6000 inverted microscope at 100× magnification.

[3] = tested on: eIF5A localization in MDA-MB-468 cells; experiment: as above; format: cell-based, human; details: 1 and 10 μM GC7, 48 hours
Procedure: as §2, §3

4T1 cells = experiment: Cell number by phase-contrast images, with TGFβ; format: cell-based, mouse; details: 10 μM each drug, 96-hour time point
Procedure: as §1
Images were taken of cells plated on a 6 well plate with appropriate conditions or treatments for experiment using widefield-brightfield phase contrast microscopy on a Leica DMI6000 B inverted microscope at 20× magnification.

MCF10CA1h cells = experiment: Chicken CAM xenograft, tumor weight and metastasis (human Alu qPCR); format: in vivo
Procedure: FIGS. 11A and 11B. […] Human triple negative MCF10CA1h breast cancer cells were pre-treated with TGFβ and fibronectin for 7 days to induce PEAK1-dependent epithelial-mesenchymal transition and tumorigenic potential. 1e6 cells were xenografted onto the chorioallantoic membrane of 10 day old chicken embryos in 20 uL of growth factor reduced Matrigel, and subsequently treated with a vehicle control, GC7, TubastatinA (TubA) or both GC7/TubA at either 1 uM (panel A) or 10 uM (panel B). Tumors were allowed to develop over the following 7 days and then harvested and weighed along with the indicated liver, lung and brain tissues. gDNA was isolated from these additional tissues to quantify human Alu repeat sequence composition normalized to host chicken GAPDH as a measure of relative cell metastasis to the indicated tissues.
Based on the partially impaired expression of Zeb1 in vitro, we wanted to assess whether this effect would result in altered metastatic dissemination using the in vivo chicken CAM system.

breast cancer cells = experiment: GC7 potency after induction of EMT by TGFβ; format: cell-based; details: induction of EMT by TGFβ treatment
eIF5A = details: during GC7 treatment; cited from earlier work
[4] = 1 μM GC7, fibronectin and TGFβ pre-treated cells, 7 days

## N=C(N)NCCCCCCCN.O=S(=O)(O)O [GC7, N1-Guanyl-1,7-diaminoheptane]
[1]; 10 μM each drug, re-treated with TGFβ 2.5 ng/mL at 48 hours, 96-hour time point
  TGFβ-induced EMT, ZEB1 mRNA (qPCR): failed to block TGFβ-induced EMT
[1]; TGFβ 2.5 ng/mL 12 hours, fibronectin
  ZEB1 mRNA expression: this effect was blocked on fibronectin
[1]; TGFβ 2.5 ng/mL 12 hours, plastic
  ZEB1 mRNA expression: decreased
[1]; TGFβ 2.5 ng/mL 48 hours
  ZEB1 mRNA expression: This effect was not seen after 48 hours
[2]
  nuclear depletion of eIF5A: Nuclear depletion of eIF5A was observed
[3]
  nuclear depletion of eIF5A: this change was significant only in the case of MDA-MB-468 cells
4T1 cells
  cell number: drastic reduction in cell number
MCF10CA1h cells; [4]
  metastatic dissemination to lung: significantly reduced
  primary tumor mass: unaffected
MCF10CA1h cells; low doses of GC7 (1 uM, panel A)
  metastasis: reduces metastasis
Breast cancer cells
  GC7 potency after TGFβ-induced EMT: increases GC7 potency
eIF5A
  FOXP3+ regulatory T cells at the site of the tumor: significantly increased
  pancreatic and splenic CD8+ lymphocytes: did not seem to be affected
  recruitment of CD4+ T cells at the site of the tumor: significantly decrease

From patent US20190216751A1, “Compositions and Methods for the Treatment and Prevention of Cancer” (California State University Northridge, priority 2017, published 2019)
